The target in assay [1] is Carboxylic ester hydrolase (Equus caballus, UniProt Q9N1N9). In words: Ellman's Method.
The target in another assay is Acetylcholinesterase (Electrophorus electricus, UniProt O42275). In words: Ellman's Method.

Molecules are shown by their SMILES.

For 27 molecules, IC50 results are on record in BindingDB's records for doi:10.1016/j.bioorg.2014.11.005 (Charles University In Prague, 2015).

Carboxylic ester hydrolase, sequence (Q9N1N9 whole entry): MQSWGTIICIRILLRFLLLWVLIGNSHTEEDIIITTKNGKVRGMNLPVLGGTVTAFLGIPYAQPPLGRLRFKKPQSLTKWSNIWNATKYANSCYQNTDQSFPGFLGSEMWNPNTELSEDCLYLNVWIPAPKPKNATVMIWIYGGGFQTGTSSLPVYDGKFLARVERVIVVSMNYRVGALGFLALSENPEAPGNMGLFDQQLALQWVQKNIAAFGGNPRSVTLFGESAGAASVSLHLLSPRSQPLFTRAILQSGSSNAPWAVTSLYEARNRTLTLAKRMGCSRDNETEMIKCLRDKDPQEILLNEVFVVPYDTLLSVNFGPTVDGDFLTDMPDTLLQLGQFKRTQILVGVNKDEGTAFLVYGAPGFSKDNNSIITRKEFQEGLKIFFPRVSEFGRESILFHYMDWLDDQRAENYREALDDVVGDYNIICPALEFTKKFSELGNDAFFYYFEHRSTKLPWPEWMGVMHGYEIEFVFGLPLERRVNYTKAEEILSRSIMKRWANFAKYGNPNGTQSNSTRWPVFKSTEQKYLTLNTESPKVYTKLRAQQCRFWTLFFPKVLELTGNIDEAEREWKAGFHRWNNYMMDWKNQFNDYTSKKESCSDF
Acetylcholinesterase, sequence (O42275 whole entry): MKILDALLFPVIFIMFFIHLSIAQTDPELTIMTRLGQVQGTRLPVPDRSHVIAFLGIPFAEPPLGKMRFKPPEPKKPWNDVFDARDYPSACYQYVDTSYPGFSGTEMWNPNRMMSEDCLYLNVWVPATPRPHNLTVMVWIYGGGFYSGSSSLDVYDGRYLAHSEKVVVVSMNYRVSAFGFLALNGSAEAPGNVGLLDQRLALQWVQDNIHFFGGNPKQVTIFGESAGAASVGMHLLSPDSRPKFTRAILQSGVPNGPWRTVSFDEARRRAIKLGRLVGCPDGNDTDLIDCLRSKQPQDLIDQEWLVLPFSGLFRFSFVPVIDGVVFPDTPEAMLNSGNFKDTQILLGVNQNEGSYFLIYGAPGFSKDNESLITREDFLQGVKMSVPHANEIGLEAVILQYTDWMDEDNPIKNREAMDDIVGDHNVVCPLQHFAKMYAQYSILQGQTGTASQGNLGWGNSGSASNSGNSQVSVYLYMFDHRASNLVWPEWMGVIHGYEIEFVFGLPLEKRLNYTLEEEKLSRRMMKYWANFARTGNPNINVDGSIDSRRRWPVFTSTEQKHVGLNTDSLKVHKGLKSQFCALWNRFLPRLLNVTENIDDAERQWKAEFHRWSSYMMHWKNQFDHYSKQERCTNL

Regarding `CCOP(=O)(OCC)Oc1ccc(Cl)cc1C(=O)Nc1ccc(C(F)(F)F)cc1` [4‐chloro‐2‐{[4‐ (trifluoromethyl)phenyl]carbamoyl}phenyl diethyl  phosphate (18)], the results for the 50% inhibitory concentration (IC50) (in assay [1]; on Acetylcholinesterase) were 20.9 µM and 41.6 µM, respectively.

With `CCOP(=O)(OCC)Oc1ccc(Cl)cc1C(=O)Nc1cccc(Br)c1` [2‐[(3‐bromophenyl)carbamoyl]‐4‐chlorophenyl  diethyl phosphate (16)], the IC50 in assay [1] stood at 16.9 µM; against Acetylcholinesterase it was 63.3 µM.

Turning to `CCOP(=O)(OCC)Oc1cc(Cl)ccc1C(=O)Nc1cccc(Cl)c1` [5-chloro-2-[(3-chlorophenyl)carbamoyl]phenyl diethyl phosphate (19)], the IC50 in assay [1] was 3.68 µM; against Acetylcholinesterase, 41.1 µM.

Consider `CCOP(=O)(OCC)Oc1cc(Cl)ccc1C(=O)Nc1ccc(C(F)(F)F)cc1` [5-chloro-2-{[4-(trifluoromethyl)phenyl]carbamoyl}phenyl diethyl phosphate (27)], for which the values for the half-inhibitory concentration (IC50) (in assay [1]; at Acetylcholinesterase) were 9.84 µM and 86.3 µM, respectively.

In the case of `CCOP(=O)(OCC)Oc1ccc(Cl)cc1C(=O)Nc1ccc(Br)cc1` [2‐[(4‐bromophenyl)carbamoyl]‐4‐chlorophenyl  diethyl phosphate (14)], the half-maximal inhibitory concentration (IC50) in assay [1] was 40.2 µM; on Acetylcholinesterase, 59.2 µM.

Take `CCOP(=O)(OCC)Oc1cc(Cl)ccc1C(=O)Nc1cccc(C(F)(F)F)c1` [5-chloro-2-{[3-(trifluoromethyl)phenyl]carbamoyl}phenyl diethyl phosphate (26)]: the IC50 is 3.53 µM in assay [1] and 71.9 µM on Acetylcholinesterase.

As to `CCOP(=O)(OCC)Oc1ccc(Br)cc1C(=O)Nc1ccc(Cl)cc1` [4‐bromo‐2‐[(4‐chlorophenyl)carbamoyl]phenyl  diethyl phosphate (3)], the half-maximal inhibitory concentration (IC50) in assay [1] worked out at 19.9 µM; at Acetylcholinesterase, 45.5 µM.

Take `CCOP(=O)(OCC)Oc1ccc(Br)cc1C(=O)Nc1cccc(Br)c1` [4‐bromo‐2‐[(3‐bromophenyl)carbamoyl]phenyl diethyl  phosphate (7)]: the IC50 worked out at 18 µM in assay [1] and 70.3 µM on Acetylcholinesterase.

For the molecule `CCOP(=O)(OCC)Oc1cc(Cl)ccc1C(=O)Nc1ccc(Br)cc1` [2-[(4-bromophenyl)carbamoyl]-5-chlorophenyl diethyl phosphate (23)], the IC50 in assay [1] turned out to be 8.76 µM; at Acetylcholinesterase it was 55.1 µM.

In the case of `CCOP(=O)(OCC)Oc1ccc(Br)cc1C(=O)Nc1cccc(C(F)(F)F)c1` [4‐bromo‐2‐{[3‐ (trifluoromethyl)phenyl]carbamoyl}phenyl diethyl  phosphate (5)], the IC50 in assay [1] amounted to 14.3 µM; at Acetylcholinesterase, 46.1 µM.

With `CCOP(=O)(OCC)Oc1ccc(Cl)cc1C(=O)Nc1ccc(Cl)c(Cl)c1` [4‐chloro‐2‐[(3,4‐dichlorophenyl)carbamoyl]phenyl  diethyl phosphate (15)], the IC50 is 40.3 µM in assay [1] and 80.9 µM at Acetylcholinesterase.

As for `CCOP(=O)(OCC)Oc1ccc(Br)cc1C(=O)Nc1cccc(F)c1` [4‐bromo‐2‐[(3‐fluorophenyl)carbamoyl]phenyl  diethyl phosphate (1)], the IC50 in assay [1] worked out at 68.3 µM; at Acetylcholinesterase it was 69.8 µM.

For `CCOP(=O)(OCC)Oc1ccc(Cl)cc1C(=O)Nc1cccc(F)c1` [4‐chloro‐2‐[(3‐fluorophenyl)carbamoyl]phenyl  diethyl phosphate (12)], the values for the IC50 (in assay [1]; at Acetylcholinesterase) were 31.6 µM and 61.1 µM, respectively.

On to `CCOP(=O)(OCC)Oc1cc(Cl)ccc1C(=O)Nc1cccc(F)c1` [5-chloro-2-[(3-fluorophenyl)carbamoyl]phenyl diethyl phosphate (21)], for which the 50% inhibitory concentration (IC50) in assay [1] amounted to 11.5 µM; on Acetylcholinesterase, 60.2 µM.

In the case of `CCOP(=O)(OCC)Oc1cc(Cl)ccc1C(=O)Nc1ccc(F)cc1` [5-chloro-2-[(4-fluorophenyl)carbamoyl]phenyl diethyl phosphate (22)], the concentration for half-maximal inhibition (IC50) came out at 4.43 µM in assay [1] and 80.8 µM on Acetylcholinesterase.

Regarding `CCOP(=O)(OCC)Oc1ccc(Br)cc1C(=O)Nc1ccc(Br)cc1` [4‐bromo‐2‐[(4‐bromophenyl)carbamoyl]phenyl diethyl  phosphate (8)], the half-inhibitory concentration (IC50) stood at 13 µM in assay [1] and 50.8 µM at Acetylcholinesterase.

Regarding `CCOP(=O)(OCC)Oc1ccc(Cl)cc1C(=O)Nc1cccc(C(F)(F)F)c1` [4‐chloro‐2‐{[3‐ (trifluoromethyl)phenyl]carbamoyl}phenyl diethyl  phosphate (17)], the 50% inhibitory concentration (IC50) in assay [1] turned out to be 24.8 µM; against Acetylcholinesterase it was 51.5 µM.

On to `CCOP(=O)(OCC)Oc1ccc(Br)cc1C(=O)Nc1cccc(Cl)c1` [4‐bromo‐2‐[(3‐chlorophenyl)carbamoyl]phenyl  diethyl phosphate (2)], for which the half-inhibitory concentration (IC50) in assay [1] came to 24.4 µM; against Acetylcholinesterase, 79.9 µM.

For the molecule `CCOP(=O)(OCC)Oc1ccc(Br)cc1C(=O)Nc1ccc(F)cc1` [4‐bromo‐2‐[(4‐fluorophenyl)carbamoyl]phenyl  diethyl phosphate (9)], the IC50 in assay [1] came to 22.7 µM; against Acetylcholinesterase, 53.7 µM.

On to `CCOP(=O)(OCC)Oc1cc(Cl)ccc1C(=O)Nc1ccc(Cl)cc1` [5-chloro-2-[(4-chlorophenyl)carbamoyl]phenyl diethyl phosphate (24)], for which the half-inhibitory concentration (IC50) was found to be 5.01 µM in assay [1] and 60.9 µM at Acetylcholinesterase.

For `CCOP(=O)(OCC)Oc1ccc(Cl)cc1C(=O)Nc1ccc(F)cc1` [4‐chloro‐2‐[(4‐fluorophenyl)carbamoyl]phenyl  diethyl phosphate (13)], the 50% inhibitory concentration (IC50) in assay [1] amounted to 20.5 µM; at Acetylcholinesterase, 48.5 µM.

In the case of `CCOP(=O)(OCC)Oc1ccc(Br)cc1C(=O)Nc1ccc(C(F)(F)F)cc1` [4‐bromo‐2‐{[4‐ (trifluoromethyl)phenyl]carbamoyl}phenyl diethyl  phosphate (6)], the half-maximal inhibitory concentration (IC50) in assay [1] is 10.3 µM; on Acetylcholinesterase, 56.7 µM.

Turning to `CCOP(=O)(OCC)Oc1cc(Cl)ccc1C(=O)Nc1ccc(Cl)c(Cl)c1` [5-chloro-2-[(3,4-dichlorophenyl)carbamoyl]phenyl diethyl phosphate (25)], the half-inhibitory concentration (IC50) in assay [1] came out at 0.903 µM; against Acetylcholinesterase, 45.5 µM.

Consider `CCOP(=O)(OCC)Oc1ccc(Cl)cc1C(=O)Nc1cccc(Cl)c1` [4‐chloro‐2‐[(3‐chlorophenyl)carbamoyl]phenyl  diethyl phosphate (10)], for which the values for the IC50 (in assay [1]; at Acetylcholinesterase) were 28.1 µM and 64.3 µM, respectively.

For the molecule `CCOP(=O)(OCC)Oc1cc(Cl)ccc1C(=O)Nc1cccc(Br)c1` [2-[(3-bromophenyl)carbamoyl]-5-chlorophenyl diethyl phosphate (20)], the 50% inhibitory concentration (IC50) in assay [1] was found to be 1.77 µM; against Acetylcholinesterase, 35.4 µM.

Take `CCOP(=O)(OCC)Oc1ccc(Br)cc1C(=O)Nc1ccc(Cl)c(Cl)c1` [4‐bromo‐2‐[(3,4‐dichlorophenyl)carbamoyl]phenyl  diethyl phosphate (4)]: the values for the concentration for half-maximal inhibition (IC50) (in assay [1]; at Acetylcholinesterase) were 49.6 µM and 55.2 µM, respectively.

Consider `CCOP(=O)(OCC)Oc1ccc(Cl)cc1C(=O)Nc1ccc(Cl)cc1` [4‐chloro‐2‐[(4‐chlorophenyl)carbamoyl]phenyl  diethyl phosphate (11)], for which the IC50 in assay [1] amounted to 42.1 µM; on Acetylcholinesterase it was 60.9 µM.
